Earlier results as cited in paper PMC3449305 (Bioorganic & medicinal chemistry, 2011).

What was measured:
CNS = details: rodents
[1] = rats

For C[C@@H](NC(=O)[C@@H](CC(=O)N1CCC(N2CCCCC2)CC1)N1C(=O)[C@@H](N2C(=O)OC[C@@H]2c2ccccc2)[C@H]1/C=C/c1cccc(I)c1)c1ccccc1 [Compound 11a, (R)-4-([1,4′-Bipiperidin]-1′-yl)-2-((2R,3S)-2-((E)-3-iodostyryl)-4-oxo-3-((S)-2-oxo-4-phenyloxazolidin-3-yl)azetidin-1-yl)-4-oxo-N-((R)-1-phenylethyl)butanamide], the “CNS effect in BOLD imaging” value (CNS) is listed as “CNS modulatory effect”.
For CC(NC(=O)C(CC(=O)N1CCC(N2CCCCC2)CC1)N1C(=O)C(N2C(=O)OCC2c2ccccc2)C1C=Cc1ccccc1)c1ccccc1 (centres unmarked) [SRX246], the blood-brain barrier penetration [1] is given as “crosses the blood–brain barrier”.
